Source: patent US11305017B2, “Anti-fugetactic agent and anti-cancer agent combination therapy and compositions for the treatment of cancer” (The General Hospital Corporation, priority 2015, dated 2022)

Test system: tumor that expresses high levels of CXCL12
Assay: Tumor growth in mice bearing a subcutaneous CXCL12-expressing tumor

SMILES	Delay in tumor growth, co-treatment versus TAX alone (AMD3100 subcutaneous once a day for 5 days, then 12.5 mg/kg TAX intraperitoneal one to three days after the final dose)	Tumor growth (12.5 mg/kg paclitaxel (TAX) intraperitoneal, 18 hours prior to assay, mice not administered AMD3100)
c1cc(CN2CCCNCCNCCCNCC2)ccc1CN1CCCNCCNCCCNCC1 [AMD3100]	synergistic effect	–
CC(=O)O[C@H]1C(=O)[C@@]2(C)[C@H]([C@H](OC(=O)c3ccccc3)[C@]3(O)C[C@H](OC(=O)[C@H](O)[C@@H](NC(=O)c4ccccc4)c4ccccc4)C(C)=C1C3(C)C)[C@]1(OC(C)=O)CO[C@@H]1C[C@@H]2O [TAX, paclitaxel]	–	delayed by TAX treatment, but resumes soon after the treatment is discontinued
